In patent US20230293430A1, “FORMULATIONS INCLUDING 5-[3-(3-HYDROXYPHENOXY)AZETIDIN-1-YL]-5-METHYL-2,2-DIPHENYLHEXANAMIDE” (Mylan Pharma UK Limited, priority 2020, published 2023):

Experiments:
[1] = Aerosolization performance (fine particle mass / fine particle fraction, Next Generation Impactor); type: physicochemical; conditions: 7% w/w blend strength with 60 μm coarse lactose LH200
Experimental: The expression “respirable fraction” refers to an index of the percentage of active particles which would reach the lungs in a patient. The respirable fraction is evaluated using a suitable in vitro apparatus such as Andersen Cascade Impactor (ACI), Multi Stage Liquid Impinger (MSLI) or Next Generation Impactor (NGI), according to procedures reported in common Pharmacopoeias, in particular in the European Pharmacopeia (Eur. Ph.) 7.3, 7th Edition, which is incorporated herein by reference in its entirety.
In this example, a dry powder blend formulation of carboxamide hydrochloride and lactose monohydrate was obtained and utilized to provide the MGR002 and MGR003 products. To achieve a FPM of 128 μg of MGR002, it has been determined that a 7% w/w carboxamide hydrochloride dry powder blend was required. The formulation included coarse lactose only (LH200, D50 of 60 μm), with a 5% w/w API overage to account for losses during the blending process. […]
Aerosolization performance information was obtained for the same batches of MGR002 and MGR003 as were used in obtaining emitted data. FIG. 3 illustrates the aerosolization performance as measured by fine particle mass (FPM) obtained from 6 devices from each MGR002 and MGR003 product. […]

[2] = Equivalence of TIR and FPM between products (ratio of geometric means, NGI); type: physicochemical
From the text: Aerosolization performance information was obtained for the same batches of MGR002 and MGR003 as were used in obtaining emitted data. FIG. 3 illustrates the aerosolization performance as measured by fine particle mass (FPM) obtained from 6 devices from each MGR002 and MGR003 product. FIG. 4 and Table 37 below present the results and equivalence criteria, respectively for carboxamide hydrochloride of formula II. The results in Table 37 are listed in terms of total impactor recovery (TIR) and fine particle mass (FPM) for MGR001, MGR002 and MGR003, carboxamide compound, salmeterol and fluticasone propionate.
The mean particle mass (FPM) and mean total impactor recovery (TIR) from a next generation impactor (NGI) for each batch were equivalent, based on the fact that the upper/lower 90% confidence interval of the ratio of the geometric mean, and fell between 0.90 and 1.11. […] The fluticasone propionate and salmeterol xinafoate components of the MGR003 drug product also met the same performance targets as the MGR001 250/50 drug product.

For `CC(C)(CCC(C(N)=O)(c1ccccc1)c1ccccc1)N1CC(Oc2cccc(O)c2)C1.Cl` [Carboxamide Hydrochloride, 5-[3-(3-Hydroxyphenoxy)azetidin-1-yl]-5-methyl-2,2-diphenylhexanamide hydrochloride], the “fine particle mass (FPM) achieved” value [1] was 138 µg, the “FPM: ratio of geometric means (MGR002 divided by MGR003)” value ([2]; fine particle mass) was 0.95 and the “TIR: ratio of geometric means (MGR002 divided by MGR003)” value ([2]; total impactor recovery) was 0.97.

In the case of `CCC(=O)O[C@]1(C(=O)SCF)[C@H](C)C[C@H]2[C@@H]3C[C@H](F)C4=CC(=O)C=C[C@]4(C)[C@@]3(F)[C@@H](O)C[C@@]21C` [Fluticasone propionate, fluticasone propionate], the “FPM: ratio of geometric means (MGR001 divided by MGR003)” value ([2]; fine particle mass) is reported as 0.99 and the “TIR: ratio of geometric means (MGR001 divided by MGR003)” value ([2]; total impactor recovery) is reported as 0.96.

In the case of `OCc1cc(C(O)CNCCCCCCOCCCCc2ccccc2)ccc1O` (stereo not shown) [Salmeterol, salmeterol xinafoate], the “FPM: ratio of geometric means (MGR001 divided by MGR003)” value ([2]; fine particle mass) is reported as 1.01 and the “TIR: ratio of geometric means (MGR001 divided by MGR003)” value ([2]; total impactor recovery) is reported as 0.97.
